Among the data in ChEMBL document CHEMBL1909046, “DrugMatrix in vitro pharmacology data” are IC50 and Ki values, retold here.

Series [1] deals with Voltage-gated inwardly rectifying potassium channel KCNH2 (Homo sapiens, UniProt Q12809). To be noted: hek293.
Series [2] addresses Sigma non-opioid intracellular receptor 1 (Homo sapiens, UniProt Q99720). The experiment in a line: DRUGMATRIX: Sigma1 radioligand binding (ligand: [3H] Haloperidol). In kind it is cell membranes, Jurkat, Membrane. To be noted: jurkat; Not Active = under 50% inhibition at 10 µM.
For series [3], the target named is Sodium-dependent noradrenaline transporter (Homo sapiens, UniProt P23975). The experiment in a line: DRUGMATRIX: Norepinephrine Transporter radioligand binding (ligand: [125I] RTI-55). The conditions noted are these: Not Active = under 50% inhibition at 10 µM. Type of series: cell membranes, MDCK, Membrane.
Series [4] can be described thus: DRUGMATRIX: Glutamate, NMDA, Agonism radioligand binding (ligand: [3H] CGP-39653). In kind it is cell membranes, Rattus norvegicus, Wistar, Cerebral cortex, Membrane. To be noted: Not Active = under 50% inhibition at 10 µM.
For series [5], the target named is Platelet-activating factor receptor (Homo sapiens, UniProt P25105). The experiment in a line: biochemical. Type of series: tissue-based. The conditions noted are these: platelet. Note: in other assays of this panel Not Active means under 50% inhibition at 10 µM.
Series [6] in a line: DRUGMATRIX: Atrial Natriuretic Factor (ANF) radioligand binding (ligand: [125I] ANF (rat)). The conditions noted are these: Not Active = under 50% inhibition at 10 µM. In kind it is cell membranes, Cavia porcellus, Dunkin-Hartley, Adrenal gland, Membrane.
In series [7] the target is T1, 5-hydroxytryptamine receptor 2C (Homo sapiens, UniProt P28335).
T1 sequence (P28335 whole entry): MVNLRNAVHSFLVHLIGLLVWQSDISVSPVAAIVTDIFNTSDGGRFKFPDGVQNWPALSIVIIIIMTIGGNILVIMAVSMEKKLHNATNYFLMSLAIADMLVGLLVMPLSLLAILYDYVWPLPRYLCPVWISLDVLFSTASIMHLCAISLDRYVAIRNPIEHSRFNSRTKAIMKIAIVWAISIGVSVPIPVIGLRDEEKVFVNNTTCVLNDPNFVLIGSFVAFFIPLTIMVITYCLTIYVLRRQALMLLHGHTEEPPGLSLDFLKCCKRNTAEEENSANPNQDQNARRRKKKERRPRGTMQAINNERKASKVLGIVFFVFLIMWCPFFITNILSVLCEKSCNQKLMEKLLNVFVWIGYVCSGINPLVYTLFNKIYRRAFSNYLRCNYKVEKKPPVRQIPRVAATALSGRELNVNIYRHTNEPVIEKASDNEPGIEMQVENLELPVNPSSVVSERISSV
The experiment in a line: DRUGMATRIX: Serotonin (5-Hydroxytryptamine) 5-HT2C radioligand binding (ligand: [3H] Mesulergine). Type of series: cell membranes, CHO-K1, Membrane. To be noted: Not Active = under 50% inhibition at 10 µM.

In a further series the target is T2, Thromboxane-A synthase (Homo sapiens, UniProt P24557).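 Note: enzyme inhibition assay with PGH2 supplied as substrate; in other assays of this panel Not Active means under 50% inhibition at 10 µM.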
T2 sequence (P24557 whole entry): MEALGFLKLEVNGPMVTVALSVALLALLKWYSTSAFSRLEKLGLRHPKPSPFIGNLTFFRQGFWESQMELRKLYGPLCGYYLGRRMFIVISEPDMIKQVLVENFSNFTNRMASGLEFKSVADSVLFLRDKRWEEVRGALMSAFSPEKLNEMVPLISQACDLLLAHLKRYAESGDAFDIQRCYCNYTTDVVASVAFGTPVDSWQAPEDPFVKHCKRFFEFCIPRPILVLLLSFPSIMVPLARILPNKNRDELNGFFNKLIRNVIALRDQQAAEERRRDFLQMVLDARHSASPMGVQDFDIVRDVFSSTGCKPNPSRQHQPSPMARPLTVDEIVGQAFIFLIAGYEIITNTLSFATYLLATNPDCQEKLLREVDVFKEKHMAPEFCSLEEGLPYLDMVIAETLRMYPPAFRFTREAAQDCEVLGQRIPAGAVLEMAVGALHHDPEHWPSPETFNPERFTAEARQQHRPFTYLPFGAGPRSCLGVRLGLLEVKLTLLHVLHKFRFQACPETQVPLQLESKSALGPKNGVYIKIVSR
The experiment in a line: biochemical. Type of series: tissue-based, Platelet.

Series [8] addresses T3, Receptor-type tyrosine-protein phosphatase C (Homo sapiens, UniProt P08575).
T3 sequence (P08575 whole entry): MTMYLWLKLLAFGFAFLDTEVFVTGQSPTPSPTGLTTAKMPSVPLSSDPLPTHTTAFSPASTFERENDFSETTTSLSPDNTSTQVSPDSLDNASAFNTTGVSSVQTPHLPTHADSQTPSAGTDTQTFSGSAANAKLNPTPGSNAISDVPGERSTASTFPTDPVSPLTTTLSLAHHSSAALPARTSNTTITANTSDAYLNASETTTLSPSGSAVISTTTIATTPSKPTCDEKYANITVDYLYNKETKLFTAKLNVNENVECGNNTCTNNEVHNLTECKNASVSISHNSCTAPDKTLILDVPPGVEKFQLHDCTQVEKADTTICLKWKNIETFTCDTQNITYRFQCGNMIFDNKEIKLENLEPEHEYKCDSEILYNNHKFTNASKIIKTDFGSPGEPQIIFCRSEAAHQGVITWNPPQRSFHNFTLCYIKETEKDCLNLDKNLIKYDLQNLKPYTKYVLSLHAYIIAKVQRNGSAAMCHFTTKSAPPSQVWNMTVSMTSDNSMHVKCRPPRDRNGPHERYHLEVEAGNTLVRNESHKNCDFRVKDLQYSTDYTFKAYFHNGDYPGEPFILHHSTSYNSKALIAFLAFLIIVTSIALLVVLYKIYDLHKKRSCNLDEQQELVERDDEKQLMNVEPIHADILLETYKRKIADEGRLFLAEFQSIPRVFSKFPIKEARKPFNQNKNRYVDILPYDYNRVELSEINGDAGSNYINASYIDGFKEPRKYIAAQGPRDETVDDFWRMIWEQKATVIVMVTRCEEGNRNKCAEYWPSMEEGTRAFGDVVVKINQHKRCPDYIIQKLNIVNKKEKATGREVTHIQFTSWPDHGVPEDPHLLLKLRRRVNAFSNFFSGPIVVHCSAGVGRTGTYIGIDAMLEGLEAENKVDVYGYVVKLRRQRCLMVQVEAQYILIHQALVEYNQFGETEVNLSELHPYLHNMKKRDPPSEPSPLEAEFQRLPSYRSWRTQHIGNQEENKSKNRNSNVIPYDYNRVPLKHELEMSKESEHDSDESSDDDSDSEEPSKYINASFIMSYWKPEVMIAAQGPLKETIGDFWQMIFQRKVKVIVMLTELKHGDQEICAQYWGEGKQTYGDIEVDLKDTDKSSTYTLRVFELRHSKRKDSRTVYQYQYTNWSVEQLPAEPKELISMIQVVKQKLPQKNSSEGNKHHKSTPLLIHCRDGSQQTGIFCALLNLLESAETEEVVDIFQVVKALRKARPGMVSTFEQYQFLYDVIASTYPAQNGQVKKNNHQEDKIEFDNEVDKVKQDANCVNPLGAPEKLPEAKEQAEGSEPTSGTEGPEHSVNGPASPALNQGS
On the set-up: species or system Escherichia coli.

The target in another series is Adenosine receptor A2a (Homo sapiens, UniProt P29274). The experiment in a line: DRUGMATRIX: Adenosine A2A radioligand binding (ligand: […]). Type of series: cell membranes, HEK293, Membrane. The conditions noted are these: Not Active = under 50% inhibition at 10 µM.

Where a SMILES comes first, the peptide text is derived from it. Bridges are numbered along the chain shown (N, C = ends). [ ]: non-standard residue; d: D form. The star is where a group is joined. Ileψ(thiazoline)Cys = CC[C@H](C)[C@H](N)C1=N[C@H](C(=O)*)CS1; dOrn = NCCC[C@@H](N)C(=O)O

Chain of Sodium-dependent noradrenaline transporter (P23975 whole entry): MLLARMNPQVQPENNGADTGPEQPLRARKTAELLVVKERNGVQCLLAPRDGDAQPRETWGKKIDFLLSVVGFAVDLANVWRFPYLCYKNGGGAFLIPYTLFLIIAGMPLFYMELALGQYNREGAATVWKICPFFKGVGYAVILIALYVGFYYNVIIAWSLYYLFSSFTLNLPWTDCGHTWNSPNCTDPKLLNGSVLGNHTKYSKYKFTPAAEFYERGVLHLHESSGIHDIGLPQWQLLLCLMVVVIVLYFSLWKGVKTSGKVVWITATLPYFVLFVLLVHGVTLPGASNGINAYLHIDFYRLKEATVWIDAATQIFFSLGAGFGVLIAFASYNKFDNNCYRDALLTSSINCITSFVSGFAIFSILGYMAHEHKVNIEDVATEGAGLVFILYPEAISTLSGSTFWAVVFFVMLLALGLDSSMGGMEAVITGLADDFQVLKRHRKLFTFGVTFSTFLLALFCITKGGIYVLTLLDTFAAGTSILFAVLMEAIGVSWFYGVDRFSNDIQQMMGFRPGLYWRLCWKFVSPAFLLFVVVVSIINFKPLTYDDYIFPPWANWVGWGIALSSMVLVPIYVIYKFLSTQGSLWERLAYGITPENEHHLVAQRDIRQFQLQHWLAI
Chain of Voltage-gated inwardly rectifying potassium channel KCNH2 (Q12809 whole entry): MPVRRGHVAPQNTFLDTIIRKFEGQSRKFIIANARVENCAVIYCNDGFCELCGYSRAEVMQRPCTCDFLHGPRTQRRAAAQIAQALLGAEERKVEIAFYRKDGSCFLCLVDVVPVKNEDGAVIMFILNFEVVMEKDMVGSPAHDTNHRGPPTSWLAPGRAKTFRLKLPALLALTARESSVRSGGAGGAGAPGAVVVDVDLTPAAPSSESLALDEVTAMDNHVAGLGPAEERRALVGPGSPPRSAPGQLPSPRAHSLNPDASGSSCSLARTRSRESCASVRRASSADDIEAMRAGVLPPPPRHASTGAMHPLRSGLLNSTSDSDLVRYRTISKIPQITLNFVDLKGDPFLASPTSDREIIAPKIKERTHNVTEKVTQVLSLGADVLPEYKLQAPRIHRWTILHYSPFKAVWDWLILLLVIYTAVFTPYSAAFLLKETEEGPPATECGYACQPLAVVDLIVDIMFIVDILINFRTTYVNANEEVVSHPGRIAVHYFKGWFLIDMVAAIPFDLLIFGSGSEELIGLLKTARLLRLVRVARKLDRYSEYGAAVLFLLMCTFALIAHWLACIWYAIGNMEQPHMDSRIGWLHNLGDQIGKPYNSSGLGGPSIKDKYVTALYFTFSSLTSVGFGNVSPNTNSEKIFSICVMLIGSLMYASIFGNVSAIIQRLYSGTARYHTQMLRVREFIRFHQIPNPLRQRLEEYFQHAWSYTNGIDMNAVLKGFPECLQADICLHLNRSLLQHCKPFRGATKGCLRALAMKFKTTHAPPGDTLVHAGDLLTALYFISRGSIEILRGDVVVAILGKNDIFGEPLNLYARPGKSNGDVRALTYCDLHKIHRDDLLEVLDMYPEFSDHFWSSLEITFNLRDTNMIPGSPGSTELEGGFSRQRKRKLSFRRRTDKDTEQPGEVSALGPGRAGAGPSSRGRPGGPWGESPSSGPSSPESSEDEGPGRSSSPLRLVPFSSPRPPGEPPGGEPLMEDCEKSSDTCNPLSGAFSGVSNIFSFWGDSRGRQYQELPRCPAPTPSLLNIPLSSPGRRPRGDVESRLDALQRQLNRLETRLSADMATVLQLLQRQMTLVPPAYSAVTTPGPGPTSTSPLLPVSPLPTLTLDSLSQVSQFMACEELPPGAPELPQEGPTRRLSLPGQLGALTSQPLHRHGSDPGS
Chain of Platelet-activating factor receptor (P25105 whole entry): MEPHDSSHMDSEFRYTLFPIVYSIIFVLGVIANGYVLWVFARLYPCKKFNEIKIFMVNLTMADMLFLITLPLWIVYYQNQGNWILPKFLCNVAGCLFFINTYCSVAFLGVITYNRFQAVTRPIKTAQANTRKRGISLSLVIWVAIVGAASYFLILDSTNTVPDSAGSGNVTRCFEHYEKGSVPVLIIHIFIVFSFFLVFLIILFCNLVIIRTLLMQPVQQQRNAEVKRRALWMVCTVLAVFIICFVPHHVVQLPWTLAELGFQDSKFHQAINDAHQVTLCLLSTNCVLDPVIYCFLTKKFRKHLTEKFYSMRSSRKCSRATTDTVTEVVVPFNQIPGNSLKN
Chain of Adenosine receptor A2a (P29274 whole entry): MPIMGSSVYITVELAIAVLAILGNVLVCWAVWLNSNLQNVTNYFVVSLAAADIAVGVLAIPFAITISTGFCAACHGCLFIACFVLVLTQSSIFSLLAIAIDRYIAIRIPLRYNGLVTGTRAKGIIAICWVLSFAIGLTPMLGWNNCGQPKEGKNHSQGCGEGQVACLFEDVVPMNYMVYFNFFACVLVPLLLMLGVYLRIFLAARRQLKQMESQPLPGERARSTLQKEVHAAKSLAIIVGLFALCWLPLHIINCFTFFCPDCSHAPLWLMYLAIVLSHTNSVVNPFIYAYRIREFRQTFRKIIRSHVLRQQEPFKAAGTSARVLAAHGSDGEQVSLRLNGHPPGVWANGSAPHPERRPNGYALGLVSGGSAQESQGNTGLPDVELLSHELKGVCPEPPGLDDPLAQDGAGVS
Chain of Sigma non-opioid intracellular receptor 1 (Q99720 whole entry): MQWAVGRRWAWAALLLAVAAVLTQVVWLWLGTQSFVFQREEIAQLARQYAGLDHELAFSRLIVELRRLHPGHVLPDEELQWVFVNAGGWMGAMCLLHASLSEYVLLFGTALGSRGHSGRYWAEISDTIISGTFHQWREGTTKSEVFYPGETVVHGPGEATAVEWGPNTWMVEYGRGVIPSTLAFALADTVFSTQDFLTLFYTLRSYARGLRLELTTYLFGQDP

One may read the IC50 as the concentration that inhibits the measured activity by half. By Ki is commonly meant the equilibrium dissociation constant of an inhibitor or competing ligand from its target. For `CC[C@H](C)[C@H](N)C1=N[C@H](C(=O)N[C@@H](CC(C)C)C(=O)N[C@H](CCC(=O)O)C(=O)N[C@H](C(=O)N[C@H]2CCCCNC(=O)[C@H](CC(N)=O)NC(=O)[C@@H](CC(=O)O)NC(=O)[C@H](Cc3cnc[nH]3)NC(=O)[C@@H](Cc3ccccc3)NC(=O)[C@H]([C@@H](C)CC)NC(=O)[C@@H](CCCN)NC2=O)[C@@H](C)CC)CS1` [BACITRACIN] ({Ileψ(thiazoline)Cys}-L[dE]IK[dOrn]I[dF]H[dD]N; lactam 4-C), the IC50 entry in [1], in series [2], in [3] (mdck), in series [4], in series [5] and in series [6] was “Not Active” in each case. Also, the IC50 result (in series [7] (cho-k1); against Thromboxane-A synthase (platelet); in series [8]; at Adenosine receptor A2a (hek293)) was “Not Active” throughout. Moreover, the Ki result in series [1], in series [4] and in [6] was “Not Active” each time.
Turning to `CCOC(=O)c1ccc(N)cc1` [BENZOCAINE], the IC50 entry in series [1], in series [2], in series [3] (mdck), in [4], in series [5] and in [6] was “Not Active” each time. The half-maximal inhibitory concentration (IC50) result (in [7] (cho-k1); against Thromboxane-A synthase (platelet); in series [8]; at Adenosine receptor A2a (hek293)) was “Not Active” in each case. The Ki result in series [1], in [4] and in series [6] was “Not Active” each time.
With `OCc1ccccc1` [BENZYL ALCOHOL], the IC50 result in [1], in series [2], in series [3] (mdck), in series [4], in series [5] and in series [6] was “Not Active” each time. The half-inhibitory concentration (IC50) entry (in series [7] (cho-k1); on Thromboxane-A synthase (platelet); in series [8]; on Adenosine receptor A2a (hek293)) was “Not Active” in each case. Besides, the Ki result in series [1], in [4] and in series [6] was “Not Active” throughout.
For the molecule `CC(C)(Oc1ccc(CCNC(=O)c2ccc(Cl)cc2)cc1)C(=O)O` [BEZAFIBRATE], the IC50 entry in series [1], in series [2], in [3] (mdck), in series [4], in series [5] and in [6] was “Not Active” each time. The IC50 entry (in [7] (cho-k1); against Thromboxane-A synthase (platelet); in series [8]; on Adenosine receptor A2a (hek293)) was “Not Active” each time. Also, the inhibition constant (Ki) result in [1], in series [4] and in series [6] was “Not Active” each time.
For `CCCC[C@@H](CC)COC(=O)c1ccccc1C(=O)OC[C@@H](CC)CCCC` [BIS(2-ETHYLHEXYL)PHTHALATE], the IC50 entry in series [1], in series [2], in series [3] (mdck), in series [4], in series [5] and in series [6] was “Not Active” in each case. Moreover, the IC50 entry (in series [7] (cho-k1); against Thromboxane-A synthase (platelet); in [8]; at Adenosine receptor A2a (hek293)) was “Not Active” each time. Moreover, the Ki entry in series [1], in series [4] and in series [6] was “Not Active” each time.
As to `Oc1c(Cl)cc(Cl)cc1Sc1cc(Cl)cc(Cl)c1O` [BITHIONOL], the IC50 result in series [1] is “Not Active”; in series [2] it was “Not Active”; in series [3] (read-out: IC50) it was 1240 nM; in series [4], “Not Active”; in [5], “Not Active”; in [6], “Not Active”. The IC50 in series [7] (read-out: IC50) is 8780 nM; on Thromboxane-A synthase (read-out: IC50), 1840 nM; in series [8], “Not Active”; at Adenosine receptor A2a (read-out: IC50), 1170 nM. The inhibition constant (Ki) entry in series [1] is “Not Active”; in series [3] (read-out: Ki) it was 1230 nM; in [4] it was “Not Active”; in [6], “Not Active”; in series [7] (read-out: Ki), 4600 nM; at Adenosine receptor A2a (read-out: Ki), 655 nM.
Consider `Brc1ccccc1` [BROMOBENZENE], for which the IC50 entry in series [1], in [2], in [3] (mdck), in [4], in series [5] and in series [6] was “Not Active” throughout. Further, the IC50 result (in series [7] (cho-k1); on Thromboxane-A synthase (platelet); in series [8]; on Adenosine receptor A2a (hek293)) was “Not Active” throughout. For the same molecule, the Ki entry in [1], in [4] and in [6] was “Not Active” throughout.
